Patent publication US12528807B2, “Solid forms of {6-[(2-amino-3-chloropyridin-4-yl)sulfanyl]-3-[(3S,4S)-4-amino-3-methyl-2-oxa-8-azaspiro[4.5]decan-8-yl]-5-methylpyrazin-2-yl} methanol, a SHP2 inhibitor” (Revolution Medicines, Inc., priority 2019, dated 2026)

Test: Relative thermodynamic stability of the anhydrous polymorphs and transition temperatures between them (thermal techniques)
Format: physicochemical
Details: for Temperature at which the form is thermodynamically (physically) stable: approximate
Method: Forms A, B, C, and D are anhydrous polymorphs of Compound 1. Thermal techniques provide data that the relative stability of the forms change with temperature. Both Forms A and C are enantiotropically related to each other and to Form D; Form A is thermodynamically stable above approximately 80° C., Form C is the stable form between approximately 80 and 43° C., and Form D is physically stable below approximately 43° C. […]
Differential scanning calorimetry performed using TA instruments Q2000: Temperature calibration was performed using NIST-traceable indium metal. The sample was placed into an aluminum Tzero crimped pan and the weight was accurately recorded. A weighed aluminum pan configured as the sample pan was placed on the reference side of the cell. The samples were analyzed from −30 to 250° C. at a ramp rate of 10° C./min.
Differential scanning calorimetry performed using Mettler-Toledo DSC3+: Temperature calibration was performed using adamantane, phenyl salicylate, indium, tin, and zinc. The sample was placed into a hermetically sealed or an open aluminum DSC pan, and the weight was accurately recorded. A weighed aluminum pan configured as the sample pan was placed on the reference side of the cell. The samples were analyzed from −30 to 250° C. at a ramp rate of 10° C./min. Although thermograms are plotted by reference temperature (x-axis), results are reported according to sample temperatures.

Cc1nc(N2CCC3(CC2)CO[C@@H](C)[C@H]3N)c(CO)nc1Sc1ccnc(N)c1Cl [Compound 1 Form A, {6-[(2-amino-3-chloropyridin-4-yl)sulfanyl]-3-[(3S,4S)-4-amino-3-methyl-2-oxa-8-azaspiro[4.5]decan-8-yl]-5-methylpyrazin-2-yl}methanol]
Conversion between Forms A, C, and D upon reaching the corresponding relevant temperatures: immediate (and reversible) | Relative Thermodynamic Stability of Polymorphs (above ~80° C.): A > (C and D and B) | Temperature at which the form is thermodynamically (physically) stable: > 80 °C | Temperature at which the form is thermodynamically (physically) stable (listed as Form A): > 80 °C | Relative Thermodynamic Stability of Polymorphs (between ~43 and ~65° C.): C > D > A > B | Relative Thermodynamic Stability of Polymorphs (between ~65 and ~80° C.): C > A > (D and B) | Relationship to Form B (table of estimated transition point temperatures) (relative to Form B): monotropic | Relative Thermodynamic Stability of Polymorphs (subambient up to ~43° C.): D > C > A > B | Estimated Transition Point Temperature between Enantiotropic Polymorphs, to Form C (transition to Form C): ~80 °C | Estimated Transition Point Temperature between Enantiotropic Polymorphs, to Form D: ~65 °C

Cc1nc(N2CCC3(CC2)CO[C@@H](C)[C@H]3N)c(CO)nc1Sc1ccnc(N)c1Cl [Compound 1 Form B, {6-[(2-amino-3-chloropyridin-4-yl)sulfanyl]-3-[(3S,4S)-4-amino-3-methyl-2-oxa-8-azaspiro[4.5]decan-8-yl]-5-methylpyrazin-2-yl}methanol]
Thermodynamic stability in words: metastable form at all temperatures

Cc1nc(N2CCC3(CC2)CO[C@@H](C)[C@H]3N)c(CO)nc1Sc1ccnc(N)c1Cl [Compound 1 Form C, {6-[(2-amino-3-chloropyridin-4-yl)sulfanyl]-3-[(3S,4S)-4-amino-3-methyl-2-oxa-8-azaspiro[4.5]decan-8-yl]-5-methylpyrazin-2-yl}methanol]
Conversion between Forms A, C, and D upon reaching the corresponding relevant temperatures: immediate (and reversible) | Relative Thermodynamic Stability of Polymorphs (above ~80° C.): A > (C and D and B) | Relative Thermodynamic Stability of Polymorphs (between ~43 and ~65° C.): C > D > A > B | Relative Thermodynamic Stability of Polymorphs (between ~65 and ~80° C.): C > A > (D and B) | Relative Thermodynamic Stability of Polymorphs (subambient up to ~43° C.): D > C > A > B | Estimated Transition Point Temperature between Enantiotropic Polymorphs, to Form D: ~43 °C

Cc1nc(N2CCC3(CC2)CO[C@@H](C)[C@H]3N)c(CO)nc1Sc1ccnc(N)c1Cl [Compound 1 Form D, {6-[(2-amino-3-chloropyridin-4-yl)sulfanyl]-3-[(3S,4S)-4-amino-3-methyl-2-oxa-8-azaspiro[4.5]decan-8-yl]-5-methylpyrazin-2-yl}methanol]
Conversion between Forms A, C, and D upon reaching the corresponding relevant temperatures: immediate (and reversible) | Relative Thermodynamic Stability of Polymorphs (above ~80° C.): A > (C and D and B) | Temperature at which the form is thermodynamically (physically) stable: < 43 °C | Temperature at which the form is thermodynamically (physically) stable (listed as Form D): < 43 °C | Relative Thermodynamic Stability of Polymorphs (between ~43 and ~65° C.): C > D > A > B | Relative Thermodynamic Stability of Polymorphs (between ~65 and ~80° C.): C > A > (D and B) | Relative Thermodynamic Stability of Polymorphs (subambient up to ~43° C.): D > C > A > B
